# Measured values from US20150071856A1, “ANTAGONISTIC PEPTIDES FOR FRIZZLED-1 AND FRIZZLED-2” (Universiteit Maastricht, priority 2013, published 2015).
# Positions of bridges follow the written chain, without caps; N, C: chain ends. Residues, ends and D or L forms follow the SMILES beside them. rhodamine = not defined here
# What was measured:
# [1] = system: canonical Wnt signaling; assay: Activity assay (Example 1): TOPflash luciferase reporter in HEK (HEK293-superTOPflash) cells, receptor not specified; assay type: cell-based, human; conditions: for activity on the frizzled receptor: antagonist or agonist: model of Example 1; for effect of the peptide by itself on luciferase activity: without Wnt3a
# Description: (§1) Human embryonic kidney (HEK) cells were used for screening. These cells have a luciferase construct stably transfected into the genome (see FIG. 2A), such that when the frizzled receptor is activated and β-catenin is increased, the luciferase is activated by transcription and light can be measured.
# (§2) The peptides were tested by transfecting the frizzled-1 or the frizzled-2 receptor and addition of UM206(S-S) to the cell culture. For testing antagonistic activity, UM206 was added and the natural ligand Wnt3a was added, which is a natural stimulus for the canonical pathway.
# Transfection and Luciferase Measurement:
# Plate cells in 12-well plates
# (§3) Day 2: Transfection 12-Well Plates • heat Fugene6 and DNA 15 minutes at RT • 2 ml serum-free medium in tube • add 3 μl fugene • add 2 μg DNA • incubate 30 minutes at RT • wash with PBS • add 50 μl transfectiemix • add 1 ml antibiotica-free medium
# (§4) Day 3: Add Conditioned Medium or UM206
# (§5) Day 4: Luciferase Activity Measurements • remove medium • wash with PBS • add 500 μl ⅕ lysisbuffer • shake for 60 minutes • centrifuge in tube • 20 μl lysaat and 50 μl luciferase in new tube for measurement • vortex • measure
# (§6) Three areas of high homology that contained two cysteines are underlined (UM207), (UM208) and (UM206). In FIGS. 9B through 9D, the inhibitory effect of these three peptides on Wnt3a-induced luciferase activity in HEK293-superTOPflash is shown. […] Again, the peptides by themselves had no effect on the luciferase activity.
# (§7) The cell lines were cultured in 75 cm^2 culture flasks (Corning, Schiphol, the Netherlands) in Dulbeco's modified essential medium with L-glutamine (2 mM), 10% fetal calf serum (Invitrogen, Merelbeke, Belgium), and 1% gentamycin (Sigma-Aldrich, Zwijndrecht, The Netherlands). Before starting the experiment, the cell lines were treated with plasmocin 25 μg/ml (Invivogen, Toulose, France) and tested with a mycoalert mycoplasma detection kit (Lonza, Rockland Me., USA). Cells were transiently transfected with Fugene6 (Roche, Indianapolis Ind., USA) with plasmid DNA, pcDNA3.1/hygro (Invitrogen) with frizzled-1/2/4 or Wnts 3a-5a or with pcDNA3.0 (Invitrogen) containing the β-catenin or frizzled-5 sequence. After transfection, the cells were cultured for 24 hours in conditioned medium, collected from the cultured L-cells, L-cells with Wnt3a or 5a (Invitrogen). At the same moment the antagonist was added.
# For the luciferase experiments not in HEK cells, the cells were additionally transfected with a TOPflash construct, eight TCF/LEF binding sites cloned into the pTA-Luc vector. Luciferase activity was measured using luciferase assay system (Promega, Madison Wis., USA).
# [2] = target: T1, frizzled-1 (rFzd-1) (Rattus norvegicus, UniProt Q08463); assay: Activity assay: luciferase reporter in HEK superTOPflash cells transfected with frizzled-1; assay type: cell-based; conditions: for block of Wnt3a-induced luciferase activity, rFzd-1: peptide 1.10^−8 M
# T1 construct: expressed in transfected cells; host or cells: HEK293 superTOPflash (transient, Fugene6, pcDNA3.1/hygro)
# Description: as §1, §2, §3, §4, §5, §6
# (§8) To determine the inhibitory constant of UM206-8, HEK293-superTOPflash cells were transfected with either rFzd-1 or -2 and incubated with Wnt3a (10^−9M) in the presence of increasing concentrations of either of the peptides (FIG. 15). For UM206, a biphasic inhibition curve was observed that was best fitted with a two-binding-state model.
# as §7
# [3] = target: T2, frizzled-2 (rFzd-2) (Rattus norvegicus, UniProt Q08464); assay: Activity assay: luciferase reporter in HEK superTOPflash cells transfected with frizzled-2; assay type: cell-based; conditions: for block of Wnt3a-induced luciferase activity, rFzd-2: peptide 1.10^−8 M
# T2 construct: expressed in transfected cells; host or cells: HEK293 superTOPflash (transient, Fugene6, pcDNA3.1/hygro)
# Description: as §1, §2, §3, §4, §5, §6, §8, §7
# [4] = system: Fzd-1 and -2; assay: Binding of rhodamine-labeled UM206 to frozen sections of mouse kidney and small intestine and its blocking
# Description: Specificity of the binding site was confirmed by prior incubation of the tissue sections with UM207 (1.10^−7 M) or recombinant Wnt3a (1.10^−8 M).
# One-half of the hearts of the mice was embedded in paraffin and cut in 4 μm sections. The paraffin sections were rehydrated and washed in PBS. One section was stained with AZAN, allowing an accurate determination of the infarct size. To visualize the myofibroblasts in the infarct area, the sections were incubated with an antibody directed against α-smooth muscle actin (Sigma-Aldrich), followed by incubation with the peroxidase-conjugated secondary antibody (Vector laboratories). Nuclei were visualized by hematoxylin. Photos were taken with a Leica (CTR500, 63×/0.85) camera and analyzed with the Quantimet program (QWin/QGo). An examiner blinded to the groups of the animals obtained all measurements. For the experiments with Rhodamine-labeled UM206, frozen sections (4 μm) of mouse kidney and small intestine were used.
# [5] = target: T3, hFzd-4 (Homo sapiens, UniProt Q9ULV1); assay: Receptor specificity: luciferase in HEK293 superTOPflash cells overexpressing hFzd-4; assay type: cell-based; conditions: FIG. 3, Panel F
# T3 construct: expressed in transfected cells; host or cells: HEK293 superTOPflash (transient, Fugene6, pcDNA3.1/hygro)
# T3 sequence (Q9ULV1 37-537): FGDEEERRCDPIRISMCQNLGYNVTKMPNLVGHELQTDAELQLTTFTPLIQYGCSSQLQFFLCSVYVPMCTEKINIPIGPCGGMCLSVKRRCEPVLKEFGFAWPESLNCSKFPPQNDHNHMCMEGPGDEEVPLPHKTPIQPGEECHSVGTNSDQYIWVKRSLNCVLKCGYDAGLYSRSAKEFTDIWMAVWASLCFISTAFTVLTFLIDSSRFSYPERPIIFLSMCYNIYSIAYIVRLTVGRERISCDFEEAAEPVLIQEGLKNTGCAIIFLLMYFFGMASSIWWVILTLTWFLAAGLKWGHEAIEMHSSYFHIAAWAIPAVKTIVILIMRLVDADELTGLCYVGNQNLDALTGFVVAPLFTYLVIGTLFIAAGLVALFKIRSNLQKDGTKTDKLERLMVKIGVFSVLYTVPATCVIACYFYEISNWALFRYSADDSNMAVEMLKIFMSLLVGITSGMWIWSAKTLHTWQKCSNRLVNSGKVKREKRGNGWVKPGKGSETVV
# Description: In FIG. 3, Panel E, the efficacy of UM206 to block the Wnt3a-induced activation of luciferase activity in HEK293 superTOPflash cells transfected with different Fzds is shown.
# as §7
# T2 sequence (Q08464 29-570): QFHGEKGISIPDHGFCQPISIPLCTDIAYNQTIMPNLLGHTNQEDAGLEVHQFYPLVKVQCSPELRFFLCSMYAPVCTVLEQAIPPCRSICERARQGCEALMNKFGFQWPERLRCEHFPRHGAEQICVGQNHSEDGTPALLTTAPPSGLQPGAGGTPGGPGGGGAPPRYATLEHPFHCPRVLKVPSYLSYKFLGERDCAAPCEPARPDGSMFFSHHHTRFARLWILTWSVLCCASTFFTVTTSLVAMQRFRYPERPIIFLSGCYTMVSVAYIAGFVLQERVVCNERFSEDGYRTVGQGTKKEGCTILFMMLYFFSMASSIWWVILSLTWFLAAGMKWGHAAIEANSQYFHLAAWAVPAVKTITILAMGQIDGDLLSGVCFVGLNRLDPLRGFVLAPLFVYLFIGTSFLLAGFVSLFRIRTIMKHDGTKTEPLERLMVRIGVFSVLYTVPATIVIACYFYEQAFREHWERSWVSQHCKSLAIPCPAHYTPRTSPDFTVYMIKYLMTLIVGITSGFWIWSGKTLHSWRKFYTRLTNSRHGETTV
# T1 sequence (Q08463 69-641): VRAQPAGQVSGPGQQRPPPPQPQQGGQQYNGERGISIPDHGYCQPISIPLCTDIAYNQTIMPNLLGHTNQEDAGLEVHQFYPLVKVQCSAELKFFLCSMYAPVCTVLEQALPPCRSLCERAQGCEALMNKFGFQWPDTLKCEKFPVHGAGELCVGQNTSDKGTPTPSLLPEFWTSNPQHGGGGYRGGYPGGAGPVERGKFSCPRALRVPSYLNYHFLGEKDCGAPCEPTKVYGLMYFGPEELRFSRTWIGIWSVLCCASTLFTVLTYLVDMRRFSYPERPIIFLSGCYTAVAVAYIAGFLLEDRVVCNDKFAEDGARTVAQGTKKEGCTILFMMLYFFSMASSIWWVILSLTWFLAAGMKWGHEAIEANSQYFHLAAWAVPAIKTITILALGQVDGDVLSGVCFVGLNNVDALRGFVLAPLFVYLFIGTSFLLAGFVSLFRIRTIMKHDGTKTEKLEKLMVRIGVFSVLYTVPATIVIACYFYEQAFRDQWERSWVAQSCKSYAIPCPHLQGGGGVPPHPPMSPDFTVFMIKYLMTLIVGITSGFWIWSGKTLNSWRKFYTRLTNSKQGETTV
compound,measurement,setting,value
CNVSSHGIDGCDL (listed as Homo sapiens) [peptide derived from the area of Wnt3a homologous to UM206],antagonistic properties of UM206 analogues,"[1]; alanine scan and modifications, 1.10-9 M",potency was lower than that of UM206
CC[C@H](C)[C@H](NC(=O)CNC(C)=O)C(=O)N[C@@H](CCCCN)C(=O)N[C@@H](CCC(=O)O)C(=O)N[C@@H](CS)C(=O)N[C@@H](CCC(N)=O)C(=O)N[C@@H](Cc1ccc(O)cc1)C(=O)N[C@@H](CCC(N)=O)C(=O)N[C@@H](Cc1ccccc1)C(=O)N[C@@H](CCCNC(=N)N)C(=O)N[C@@H](Cc1c[nH]cn1)C(=O)N[C@@H](CCCNC(=N)N)C(=O)N[C@@H](CCCNC(=N)N)C(=O)N[C@@H](Cc1c[nH]c2ccccc12)C(=O)N[C@@H](CC(N)=O)C(=O)N[C@@H](CS)C(=O)N[C@@H](CO)C(=O)N[C@H](C(=O)N[C@H](C(=O)N[C@@H](CC(=O)O)C(N)=O)C(C)C)[C@@H](C)O [UM207] (Ac-GIKECQYQFRHRRWNCSTVD-NH2),activity on the frizzled receptor: antagonist or agonist,[1],potent antagonist
same,effect of the peptide by itself on luciferase activity,[1],none of the three peptides by itself could induce an increase in luciferase activity
same,"block of Wnt3a-induced luciferase activity, rFzd-1",[2],blocked almost completely
same,"block of Wnt3a-induced luciferase activity, rFzd-2",[3],blocked almost completely
same,blocking of UM206-rhodamine binding by prior incubation,"[4]; UM206-rhodamine 1.10^−8 M, UM207 1.10^−7 M, Wnt3a 1.10^−8 M",completely abolished the binding of UM206-rhodamine
UM206-rhodamine: UM206 with rhodamine attached to Lys^3 (Ac-CNK(rhodamine)TSEGMDGCEL-NH2; cysteine pairing not given here; reading uncertain),effect of rhodamine attachment to Lys^3 on IC50 for blocking Wnt3a-induced luciferase expression,"[1]; HEK293 superTOPflash cells, not shown",did not affect its IC50 value
same,staining of tissue sections,"[4]; 1.10^−8 M, 15 minutes, two-foton microscopy",staining of tubular epithelium and panneth cells
"CC(=O)NCC(=O)N[C@@H](CO)C(=O)N[C@@H](CS)C(=O)N[C@@H](CO)C(=O)N[C@@H](CC(C)C)C(=O)N[C@@H](CCCCN)C(=O)N[C@H](C(=O)N[C@@H](CS)C(=O)N[C@@H](Cc1c[nH]c2ccccc12)C(=O)N[C@@H](CC(C)C)C(=O)N[C@@H](CCC(N)=O)C(=O)N[C@@H](CC(C)C)C(=O)N[C@@H](C)C(=O)N[C@@H](CC(=O)O)C(N)=O)[C@@H](C)O [UM208, GSCSLKTCWLQLAD] (Ac-GSCSLKTCWLQLAD-NH2)",effect of the peptide by itself on luciferase activity,[1],none of the three peptides by itself could induce an increase in luciferase activity
same,"block of Wnt3a-induced luciferase activity, rFzd-1",[2],blocked almost completely
same,"block of Wnt3a-induced luciferase activity, rFzd-2",[3],blocked almost completely
CSCC[C@@H]1NC(=O)CNC(=O)[C@H](CCC(=O)O)NC(=O)[C@H](CO)NC(=O)[C@H]([C@@H](C)O)NC(=O)[C@H](CCCCN)NC(=O)[C@H](CC(N)=O)NC(=O)[C@@H](NC(C)=O)CSSC[C@@H](C(=O)N[C@@H](CCC(=O)O)C(=O)N[C@@H](CC(C)C)C(N)=O)NC(=O)CNC(=O)[C@H](CC(=O)O)NC1=O [UM206(S-S)] (Ac-CNKTSEGMDGCEL-NH2; disulfide 1-11),activity on the frizzled receptor: antagonist or agonist,[1],potent agonist
same,agonist activity at frizzled-1,"[2]; FIG. 3, Panel F",specific agonist
same,agonist activity at frizzled-2,"[3]; FIG. 3, Panel F",specific agonist
same,agonist activity at frizzled-4,[5],not for frizzled-4 or frizzled-5
